Source: patent publication US12594254B2, “Intranasal administration of n-acetylcysteine and uses thereof” (Neuronasal, Inc., priority 2022, dated 2026)

Columns and labels:
Type in all cases: in vivo, human
[1] = test system: regional brain GSH/creatine ratio; test: 1H-MRS change from baseline of regional brain GSH/Creatine ratio after single dose IN NAC
Description: (§1) Various assays were designed and tested assess the feasibility of IN NAC administration for direct nose-to-brain delivery as shown and described for FIGS. 1-4. Assays include studies in healthy participants using ^1H-MRS assessment of change from baseline in NAC-derived metabolic markers in three brain regions (occipital cortex, striatum, and DLPF), following a single dose of 196 mg to 200 mg IN NAC at 1, 3, and 6 hours.
(§2) Magnetic resonance (MR) spectra of NAC-derived brain metabolites in three brain regions (occipital cortex, striatum, and DLPF) at baseline and 1, 3, and 6 hours following IN NAC were assessed. Percentage change from Baseline of GSH/Creatine and N-Acetylaspartate (NAA)/Creatine in the three regions by treatment group were plotted (FIGS. 3-4).

[2] = Blood PK of total NAC and GSH after a single dose of IN NAC in healthy participants
Description: as §1
Concentrations of the targeted metabolites were reported for various time points to assess total NAC and GSH concentrations. Mean (±standard error [SE]) of blood PK data were plotted on linear and semi logarithmic scales (FIGS. 1-2).

NAA/creatine ratio = test: 1H-MRS change from baseline of regional brain NAA/Creatine ratio after single dose IN NAC; details: for increase of NAA/creatine ratio post-dose: dorsolateral prefrontal cortex
Description: as §1, §2

Structure (SMILES): CC(=O)N[C@@H](CS)C(=O)O [NAC, N-acetylcysteine]
- effect on regional brain GSH (overall) ([1]; 196 mg IN NAC, APTAR 5 mL CPS Syringe, 1, 3 and 6 hour post-dose timepoints): failed to produce consistent elevation
- effect on regional brain GSH (overall) ([1]; 200 mg IN NAC, Teleflex MAD device, 5 participants with analyzable MRS data): time- and region-dependent increase
- increase of regional brain GSH/creatine ratio relative to pre-dose baseline ([1]; dorsolateral prefrontal cortex (n=5), 200 mg IN NAC, Teleflex MAD device, 1 hour post-dose): ~17%
- increase of regional brain GSH/creatine ratio relative to pre-dose baseline ([1]; dorsolateral prefrontal cortex (n=5), 200 mg IN NAC, Teleflex MAD device, 3 hours post-dose): ~42%
- increase of regional brain GSH/creatine ratio relative to pre-dose baseline ([1]; dorsolateral prefrontal cortex (n=5), 200 mg IN NAC, Teleflex MAD device, 6 hours post-dose): ~34%
- increase of regional brain GSH/creatine ratio relative to pre-dose baseline ([1]; dorsolateral prefrontal cortex, 196 mg IN NAC, APTAR 5 mL CPS Syringe (n=3), 1 hour): 18%
- decrease of regional brain GSH/creatine ratio relative to pre-dose baseline ([1]; dorsolateral prefrontal cortex, 196 mg IN NAC, APTAR 5 mL CPS Syringe (n=3), 3 hours): 71%
- increase of regional brain GSH/creatine ratio relative to pre-dose baseline ([1]; dorsolateral prefrontal cortex, 196 mg IN NAC, APTAR 5 mL CPS Syringe (n=3), 6 hours): 4%
- increase of regional brain GSH/creatine ratio relative to pre-dose baseline ([1]; occipital cortex (n=5), 200 mg IN NAC, Teleflex MAD device, 1 hour post-dose): ~25%
- increase of regional brain GSH/creatine ratio relative to pre-dose baseline ([1]; occipital cortex (n=5), 200 mg IN NAC, Teleflex MAD device, 3 hours post-dose): ~49%
- increase of regional brain GSH/creatine ratio relative to pre-dose baseline ([1]; occipital cortex (n=5), 200 mg IN NAC, Teleflex MAD device, 6 hours post-dose): ~21%
- decrease of regional brain GSH/creatine ratio relative to pre-dose baseline ([1]; occipital cortex, 196 mg IN NAC, APTAR 5 mL CPS Syringe (n=3), 1 hour): 17%
- increase of regional brain GSH/creatine ratio relative to pre-dose baseline ([1]; occipital cortex, 196 mg IN NAC, APTAR 5 mL CPS Syringe (n=3), 3 hours): 2%
- increase of regional brain GSH/creatine ratio relative to pre-dose baseline ([1]; occipital cortex, 196 mg IN NAC, APTAR 5 mL CPS Syringe (n=3), 6 hours): 1%
- increase of regional brain GSH/creatine ratio relative to pre-dose baseline ([1]; striatum (n=4), 200 mg IN NAC, Teleflex MAD device, 1 hour post-dose): approximately 36%
- increase of regional brain GSH/creatine ratio relative to pre-dose baseline ([1]; striatum (n=4), 200 mg IN NAC, Teleflex MAD device, 3 hours post-dose): ~20%
- increase of regional brain GSH/creatine ratio relative to pre-dose baseline ([1]; striatum (n=4), 200 mg IN NAC, Teleflex MAD device, 6 hours post-dose): ~14%
- increase of regional brain GSH/creatine ratio relative to pre-dose baseline ([1]; striatum, 196 mg IN NAC, APTAR 5 mL CPS Syringe (n=3), 1 hour): 2%
- decrease of regional brain GSH/creatine ratio relative to pre-dose baseline ([1]; striatum, 196 mg IN NAC, APTAR 5 mL CPS Syringe (n=3), 3 hours): 11%
- change of regional brain GSH/creatine ratio relative to pre-dose baseline ([1]; striatum, 196 mg IN NAC, APTAR 5 mL CPS Syringe (n=3), 6 hours): extreme variability
- mean percentage change from Baseline in NAC (blood) ([2]; 196 mg IN NAC, APTAR 5 mL CPS Syringe, 1 hour post-dose): 2881.66%
- mean percentage change from Baseline in NAC (blood) ([2]; 196 mg IN NAC, APTAR 5 mL CPS Syringe, 3 hours post-dose): 1158.20%
- mean percentage change from Baseline in NAC (blood) ([2]; 196 mg IN NAC, APTAR 5 mL CPS Syringe, 6 hours post-dose): 419.35%
- mean percentage change from Baseline in NAC (blood) ([2]; 200 mg IN NAC, Teleflex MAD device, 1 hour post-dose): 2379.60%
- mean percentage change from Baseline in NAC (blood) ([2]; 200 mg IN NAC, Teleflex MAD device, 3 hours post-dose): 1117.01%
- mean percentage change from Baseline in NAC (blood) ([2]; 200 mg IN NAC, Teleflex MAD device, 6 hours post-dose): 438.17%
- increase of NAA/creatine ratio post-dose (NAA/creatine ratio; 196 mg dose group, second of two values, time point unclear (1, 3 and 6 hours named)): 9.0%
- increase of NAA/creatine ratio post-dose (NAA/creatine ratio; 196 mg dose group, time point unclear (1, 3 and 6 hours named)): 7.9%
- increase of NAA/creatine ratio post-dose (NAA/creatine ratio; 200 mg dose group, 1 hour post-dose): 4.5%
- increase of NAA/creatine ratio post-dose (NAA/creatine ratio; 200 mg dose group, 3 hours post-dose): 6.0%
- increase of NAA/creatine ratio post-dose (NAA/creatine ratio; 200 mg dose group, 6 hours post-dose): 3.8%
- post-dose changes in the NAA/creatine ratio relative to baseline (NAA/creatine ratio; striatum and occipital cortex, both dose groups (200 mg and 196 mg), described as minimal): ≤ 2.5%
- post-dose changes in the NAA/creatine ratio (NAA/creatine ratio; striatum, 6 hours, 196 mg cohort): highly variable changes
